Assay results reported in patent US20250197641A1, “OPTICAL ABSORBENT” (priority 2023, published 2025).

Tests used:
Assay type in all cases: physicochemical
[1] = Absorption maximum measurement; conditions: chloroform, about 10^-5 M
Procedure: The maximum absorption was evaluated by a conventional method. Specifically, the sample was dissolved in chloroform solvent at a concentration of about 10^−5 M and then evaluated using measuring equipment (Agilent, Varian Cary 4000).

[2] = Pyrolysis temperature (Td 5%) analysis by TGA; conditions: 25-800° C., 10° C./min, N2
Procedure: The Td 5% is a value obtained through TGA (Thermogravimetric Analysis) analysis. It is the value (Td 5%) at a weight loss of 5% confirmed under the conditions of a temperature range of 25° C. to 800° C., a temperature increase rate of 10° C./min, and a nitrogen (N2) atmosphere of 60 cm^3/min.
Thermogravimetric Analysis (TGA) of the chemical compound was performed by using Scinco's TGA N-1000 equipment. The analysis was performed by using approximately 3 mg of sample (chemical compound) and the analysis was conducted under conditions of a temperature range of 25° C. to 800° C., a temperature increase rate of 10° C./min, and nitrogen (N2) atmosphere of 60 cm^3/min. The value at […] (Td 5%) was used as the Td decomposition temperature.

[3] = Solubility of the absorbent in methylene chloride; conditions: room temperature (about 25° C.)
Procedure: The solubility of the absorbent was evaluated. Solubility was determined based on the following criteria by evaluating the solubility of the absorbent in the solvent (MC, Methylene Chloride) at room temperature (about 25° C.).

[4] = Transmittance of absorption membrane before and after reliability evaluation (Test Example 1)
Procedure: The transmittance spectrum was measured using a spectrophotometer (Manufacturer: Perkinelmer, Product Name: Lambda 750 Spectrophotometer) on a specimen obtained by cutting the measurement object (e.g., an absorption membrane) so that the width and height were 10 mm and 10 mm, respectively. The transmittance spectrum was measured for each wavelength according to the equipment manual. The specimen was placed on a straight line between a measuring beam of the spectrophotometer and a detector and the transmittance spectrum was confirmed by setting the incident angle of the measuring beam to 0°. The incident angle of 0° is a direction substantially parallel to the surface normal direction of the specimen. The average transmittance within a certain wavelength range in the transmittance spectrum is the result of measuring the transmittance at each wavelength while increasing the wavelength by 1 nm starting from the shortest wavelength in the wavelength range, and then calculating the arithmetic average of the measured transmittances. The maximum transmittance is the maximum transmittance among the transmittances measured while increasing the wavelength by 1 nm and the minimum transmittance is the minimum transmittance among the transmittances measured while increasing the wavelength by 1 nm. For example, the average transmittance within the wavelength range of 350 nm to 360 nm is the arithmetic mean of the transmittance measured at the wavelength of 350 nm, 351 nm, 352 nm, 353 nm, 354 nm, 355 nm, 356 nm, 357 nm, 358 nm, 359 nm, and 360 nm. The maximum transmittance within the wavelength range of 350 nm to 360 nm is the highest transmittance measured at wavelengths of 350 nm, 351 nm, 352 nm, 353 nm, 354 nm, 355 nm, 356 nm, 357 nm, 358 nm, 359 nm and 360 nm and the minimum transmittance within the wavelength range of 350 nm to 360 nm is the lowest transmittance among the transmittances measured at wavelengths of 350 nm, 351 nm, 352 nm, 353 nm, 354 nm, 355 nm, 356 nm, 357 nm, 358 nm, 359 nm, and 360 nm.
A coating solution was prepared by mixing silicone resin (Dow Chemical, RSN-0217), absorbent, and solvent (cyclohexanone) as resin components. The mixing ratio of the resin component, absorbent, and solvent was set to be 69.3:0.99:29.7 in weight ratio (resin:absorbent:solvent).
The coating solution was coated on a transparent substrate (a glass substrate manufactured by SCHOTT) and maintained at 140° C. for about 2 hours to form an absorption membrane with a thickness of about 6 μm.
Tables 2 and 3 below summarize the transmittance of the absorption membrane before and after reliability evaluation in the ultraviolet and near-infrared regions. The reliability evaluation is an evaluation of maintaining the absorption membrane at 85° C. and under 85% relative humidity condition for 120 hours. In Table 2, B refers to the result before performing the reliability evaluation and A refers to the result after performing the reliability evaluation. Additionally, in Table 2, λmax means the transmittance at the absorption maximum.
In Tables 2 and 3, Δ is the rate of change (%) of each characteristic before and after the reliability evaluation, calculated as 100×[…]/B, where […], B is the value indicated by B in Table 2. In Table 2, Tmax refers to the highest transmittance within the corresponding wavelength region, Tave refers to the average transmittance within the corresponding wavelength region, and Tmin refers to the minimum transmittance within the corresponding wavelength region.

[5] = Absorption spectra of absorption membrane before and after high temperature/high humidity evaluation (Test Example 2); conditions: 85% relative humidity, 120 hours
Source text: FIGS. 4 to 6 are the absorption spectra of the absorption membranes prepared in Test Example 1 using the absorbents of Embodiments 1 to 3, respectively. FIGS. 7 to 9 are the absorption spectrum of the absorption membrane prepared in Test Example using the absorbents of Comparative Examples 1 to 3, respectively. In the FIGS., the spectra indicated before reliability is the result immediately after preparing the absorption membrane, and the spectra indicated after reliability is the result after high temperature/high humidity evaluation was performed on the absorption membrane. The high temperature/high humidity evaluation is an evaluation where the absorption membrane is maintained at a temperature of 85° C. under a relative humidity of 85% for 120 hours. In Tables 4 and 5, Af is the transmittance at the absorption maximum wavelength of the absorption membrane maintained at 85° C. under 85% relative humidity for 120 hours and λf is the absorption maximum wavelength for after case. Ai is the transmittance at the absorption maximum wavelength of the absorption membrane before being maintained at 85° C. under 85% relative humidity for 120 hours and λi is the absorption maximum wavelength for before case. In Tables 4 and 5, ΔA is a value calculated as 100×(Af−Ai)/Ai, and Δλ is a value calculated as 100×(λf−λi)λi.

[6] = change before/after 85° C., 85% RH, 120 hours
[7] = silicone resin membrane about 6 μm, before reliability evaluation
[8] = silicone resin membrane, after 85° C., 85% RH, 120 hours
[9] = absorption membrane after 85° C.
[10] = absorption membrane before 85° C.

Maximum Absorption Wavelength [1]: 815 nm
Solubility [3]: A (When solubility is 1 mass % or more)
425~465 nm Tave, Δ [4, 6]: −0.2%
425~465 nm Tmin, Δ [4, 6]: 0%
466~480 nm Tave, Δ [4, 6]: −0.9%
466~480 nm Tmin, Δ [4, 6]: −0.6%
480~560 nm Tave, Δ [4, 6]: −1.3%
λmax Tmax (transmittance at the absorption maximum), Δ [4, 6]: 11.4%
425~465 nm Tave, B [4, 7]: 87.3%
425~465 nm Tmin, B [4, 7]: 86.5%
466~480 nm Tave, B [4, 7]: 88.9%
466~480 nm Tmin, B [4, 7]: 88%
480~560 nm Tave, B [4, 7]: 90.4%
425~465 nm Tave, A [4, 8]: 87%
425~465 nm Tmin, A [4, 8]: 86.6%
466~480 nm Tave, A [4, 8]: 88%
466~480 nm Tmin, A [4, 8]: 87.5%
480~560 nm Tave, A [4, 8]: 89.2%
ΔA = 100×(Af−Ai)/Ai ([5]; 85° C.): 52.6%
Δλ = 100×(λf−λi)λi ([5]; 85° C.): −12%
Af, transmittance at the absorption maximum wavelength [5, 9]: 33.0%
λf, absorption maximum wavelength [5, 9]: 818 nm
Ai, transmittance at the absorption maximum wavelength [5, 10]: 21.6%
λi, absorption maximum wavelength [5, 10]: 819 nm
Structure (SMILES): CCCCN1/C(=C\C=C2/CCC(/C=C/C3=[N+](CCCC)c4ccccc4C3(C)C)=C2Cl)C(C)(C)c2ccccc21 [Comparative Example 3]
Td 5% [2]: 186 °C
